According to patent US11345701B1, “KRAS mutant protein inhibitors” (Jacobio Pharmaceuticals Co., Ltd., priority 2021, dated 2022):

What was measured:
[1] = biological target: HIS-KRAS(G12C) (Homo sapiens (Human), UniProt P01116, G12C); assay: SOS1 catalyzed nucleotide exchange assay (TR-FRET); assay type: biochemical
Experimental: TR-FRET signals were then read on Tecan Spark multimode microplate reader. […] TR-FRET ratios for each individual wells were calculated by equation: TR-FRET ratio=(Signal F515/Signal F486)*10000. Then the data were analyzed using a 4-parameter logistic model to calculate IC50 values.

[2] = Dog pharmacokinetic study; assay type: in vivo, beagle dog; details: for CL / VSS / AUC0-24h / Cmax / Oral BA (F %): beagle dog; for CL / VSS: 1 mg/kg, iv; for AUC0-24h / Cmax / Oral BA (F %) / AUC0-24 h relative to the control compound Amg-510: 3 mg/kg, po
Experimental: The purpose of this study was to evaluate the pharmacokinetic properties of compounds in beagle dog following single dose administration. The day before administration, dogs were fasted overnight and free access to water. Four beagle dogs were needed for each compound and the four dogs were divided into two groups, group A and group B (one male(♂) and one female (♀) in each group). Dogs in group A were treated with a single 1 mg/kg dose of compound (iv). Dogs in group B were treated with a single 3 mg/kg dose of compound (po). For dogs in group A, blood samples were collected at pre-dose, and at the time point of 0.083, 0.25, 0.5, 1, 2, 4, 6, 8 and 24 h post-dose. For dogs in group B, blood samples were collected at pre-dose, and at the time point of 0.25, 0.5, 1, 2, 4, 6, 8 and 24 h post-dose. Blood samples were placed on ice until centrifugation to obtain plasma samples. The plasma samples were stored at −80° C. until analysis. The concentration of compound in plasma samples was determined using a LC-MS/MS method.

HIS-KRAS(G12C), sequence (P01116 other isoform, or with tags, fused parts or gaps G12C): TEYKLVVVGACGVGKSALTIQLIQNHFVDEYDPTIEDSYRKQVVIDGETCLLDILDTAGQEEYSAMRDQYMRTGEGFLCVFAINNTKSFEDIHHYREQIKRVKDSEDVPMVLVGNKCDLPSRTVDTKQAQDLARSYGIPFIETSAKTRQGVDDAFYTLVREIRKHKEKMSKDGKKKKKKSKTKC

## C=CC(=O)N1CCN(c2nc(=O)n(-c3c(C)ccnc3C(C)C)c3nc(-c4c(N)c(F)c(F)c(F)c4F)c(F)cc23)[C@@H](C)C1 (atropisomer, axis not shown; (M)) [Compound 2-1, (M)-4-((S)-4-acryloyl-2-methylpiperazin-1-yl)-7-(2-amino-3,4,5,6-tetrafluorophenyl)-6-fluoro-1-(2-isopropyl-4-methylpyridin-3-yl)pyrido[2,3-d]pyrimidin-2(1H)-one]
[1]; GDP-loaded HIS-KRAS(G12C), 1 hour pre-incubation, TR-FRET
  IC50: 1.19 nM
[1]; SOS1 catalyzed nucleotide exchange assay
  Inhibitory activity relative to the control compound Amg-510: about 2 times
[2]; beagle dog model, compared with Amg-510
  Pharmacokinetic properties in words: excellent pharmacokinetic properties
[2]; female
  CL: 4.40 mL/min/kg
  VSS: 0.295 L/kg
  AUC0-24h: 5022 ng·h/mL
  Cmax: 2330 ng/mL
  Oral BA (F %): 44.3%
[2]; male
  CL: 4.15 mL/min/kg
  VSS: 0.255 L/kg
  AUC0-24h: 7308 ng·h/mL
  Cmax: 4080 ng/mL
  Oral BA (F %): 60.9%
[2]; female beagle dog
  AUC0-24 h relative to the control compound Amg-510: more than 12 times
[2]; male beagle dog
  AUC0-24 h relative to the control compound Amg-510: more than 3 times
